Experimental data taken from patent publication KR20100022620A, “2-(2-옥소-2-페닐에틸설파닐)-벤즈이미다졸-4-카르복스아미드 유도체 또는 이의 약학적으로 허용가능한 염, 이의 제조방법 및 이를 유효성분으로 함유하는 폴리(adp-리보스)폴리머라제-1(parp-1)의 과활성에 의해 유발되는 질환의 예방 또는 치료용 약학적 조성물” (한국화학연구원, priority 2008, dated 2010).
pIC50: −log10 of the molar value.

What was measured:
[1] = target: T1, PARP-1 (Homo sapiens, UniProt P09874); assay: PARP-1 inhibition (Universal Colorimetric PARP Assay-Histones kit); format: biochemical; conditions: for pIC50: IC50 determined only for drugs inhibiting 50% or more at 10 μM, 0.01 ~10 μM, 0.5U PARP, room temperature, 1 h; for PARP-1 inhibitory effect (in words): judged from Table 2
T1 construct: purchased TREVIGEN 4671-096-K

[2] = system: ischemic heart (허혈심장); assay: Antiischemic (cardioprotective) effect in in vivo ischemic heart model of the rat; conditions: 1 mg/kg; for reduction of myocardial infarction rate / cardioprotective effect (in words): rat, versus negative control 58.6%; for myocardial infarction rate (IS/AAR, infarct size/area at risk): via femoral vein, male rat, 45 min occlusion, 90 min reperfusion, negative control 58.6%

T1 sequence (P09874 whole entry): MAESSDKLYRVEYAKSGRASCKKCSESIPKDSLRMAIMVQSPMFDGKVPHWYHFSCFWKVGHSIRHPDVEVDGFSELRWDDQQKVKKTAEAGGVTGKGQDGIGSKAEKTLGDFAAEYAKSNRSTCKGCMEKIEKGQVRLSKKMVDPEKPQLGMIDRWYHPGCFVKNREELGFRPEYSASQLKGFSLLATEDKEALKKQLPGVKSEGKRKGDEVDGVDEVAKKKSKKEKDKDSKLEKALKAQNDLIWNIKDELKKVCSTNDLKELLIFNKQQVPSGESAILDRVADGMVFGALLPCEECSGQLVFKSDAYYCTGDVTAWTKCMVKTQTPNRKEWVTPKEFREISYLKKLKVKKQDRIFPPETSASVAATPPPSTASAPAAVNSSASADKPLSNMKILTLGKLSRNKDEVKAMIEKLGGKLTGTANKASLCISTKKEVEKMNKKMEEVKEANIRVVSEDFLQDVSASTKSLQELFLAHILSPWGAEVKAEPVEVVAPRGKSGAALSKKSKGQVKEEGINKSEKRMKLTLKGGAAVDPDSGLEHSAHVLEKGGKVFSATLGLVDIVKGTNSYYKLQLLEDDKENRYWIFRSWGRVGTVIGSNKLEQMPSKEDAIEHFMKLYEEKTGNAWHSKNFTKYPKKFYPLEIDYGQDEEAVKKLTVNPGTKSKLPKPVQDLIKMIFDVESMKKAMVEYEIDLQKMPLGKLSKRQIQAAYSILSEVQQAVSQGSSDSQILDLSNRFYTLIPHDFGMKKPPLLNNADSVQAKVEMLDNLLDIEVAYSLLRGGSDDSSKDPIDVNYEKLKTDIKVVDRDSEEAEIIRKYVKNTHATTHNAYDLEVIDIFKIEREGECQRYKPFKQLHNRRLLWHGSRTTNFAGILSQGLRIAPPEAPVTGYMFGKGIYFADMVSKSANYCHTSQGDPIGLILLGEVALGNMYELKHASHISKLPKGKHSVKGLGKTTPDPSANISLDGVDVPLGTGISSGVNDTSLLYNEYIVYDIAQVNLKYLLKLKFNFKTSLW

SMILES | pIC50 [1] | PARP-1 inhibitory effect (in words) [1] | reduction of myocardial infarction rate / cardioprotective effect (in words) [2] | myocardial infarction rate (IS/AAR, infarct size/area at risk) [2]
NC(=O)c1cccc2[nH]c(SCC(=O)c3ccccc3F)nc12 [실시예 10, 2-[2-(2-플루오로페닐)-2-옥소-에틸설파닐]-1H-벤즈이미다졸-4-카르복스아미드] | 5.91 |  |  | 
NC(=O)c1cccc2[nH]c(SCC(=O)c3ccc(N4CCCCC4)cc3)nc12 [실시예 17, 2-[2-(3-피페리딘-1-일페닐)-2-옥소-에틸설파닐]-1H-벤즈이미다졸-4-카르복스아미드] | 5.85 |  |  | 
NC(=O)c1cccc2[nH]c(SCC(=O)c3cccc(N4CCCC4)c3)nc12 [실시예 16, 2-[2-(3-피롤리딘-1-일페닐)-2-옥소-에틸설파닐]-1H-벤즈이미다졸-4-카르복스아미드] | 5.92 |  |  | 
COc1ccc(C(=O)CSc2nc3c(C(N)=O)cccc3[nH]2)cc1 [실시예 14, 2-[2-(4-메톡시페닐)-2-옥소-에틸설파닐]-1H-벤즈이미다졸-4-카르복스아미드] | 5.71 |  |  | 
Cc1ccccc1C(=O)CSc1nc2c(C(N)=O)cccc2[nH]1 [실시예 12, 2-[2-(2-메틸페닐)-2-옥소-에틸설파닐]-1H-벤즈이미다졸-4-카르복스아미드] | 6.02 | 매우 뛰어난 PARP-1 억제효과 |  | 
NC(=O)c1cccc2[nH]c(SCC(=O)c3cccc(Br)c3)nc12 [실시예 11, 2-[2-(3-브로모페닐)-2-옥소-에틸설파닐]-1H-벤즈이미다졸-4-카르복스아미드] | 5.65 |  |  | 
NC(=O)c1cccc2[nH]c(SCC(=O)c3ccc(F)cc3)nc12 [실시예 4, 2-[2-(4-플루오로페닐)-2-옥소-에틸설파닐]-1H-벤즈이미다졸-4-카르복스아미드] | 6.03 | 매우 뛰어난 PARP-1 억제효과 |  | 
NC(=O)c1ccc(C(=O)CSc2nc3c(C(N)=O)cccc3[nH]2)cc1 [실시예 19, 2-[2-(4-카르바모일페닐)-2-옥소-에틸설파닐]-1H-벤즈이미다졸-4-카르복스아미드] | 6.42 | 매우 뛰어난 PARP-1 억제효과 | 우수한 심장보호효과 | 36.3%
NC(=O)c1cccc2[nH]c(SCC(=O)c3ccc(C=O)cc3)nc12 [실시예 21, 2-[2-(4-포르밀페닐)-2-옥소-에틸설파닐]-1H-벤즈이미다졸-4-카르복스아미드] | 6.12 | 매우 뛰어난 PARP-1 억제효과 |  | 
NC(=O)c1cccc2[nH]c(SCC(=O)c3cccc(F)c3)nc12 [실시예 8, 2-[2-(3-플루오로페닐)-2-옥소-에틸설파닐]-1H-벤즈이미다졸-4-카르복스아미드] | 6.02 | 매우 뛰어난 PARP-1 억제효과 |  | 
NC(=O)c1cccc(C(=O)CSc2nc3c(C(N)=O)cccc3[nH]2)c1 [실시예 18, 2-[2-(3-카르바모일페닐)-2-옥소-에틸설파닐]-1H-벤즈이미다졸-4-카르복스아미드] | 6.37 | 매우 뛰어난 PARP-1 억제효과 | 우수한 심장보호효과 | 37.5%
NC(=O)c1cccc2[nH]c(SCC(=O)c3ccccc3)nc12 [실시예 20, 2-[2-페닐-2-옥소-에틸설파닐]-1H-벤즈이미다졸-4-카르복스아미드] | < 5.00 |  |  | 
Cc1cccc(C(=O)CSc2nc3c(C(N)=O)cccc3[nH]2)c1 [실시예 15, 2-[2-(3-메틸페닐)-2-옥소-에틸설파닐]-1H-벤즈이미다졸-4-카르복스아미드] | 5.72 |  |  | 
Cc1ccc(C)c(C(=O)CSc2nc3c(C(N)=O)cccc3[nH]2)c1 [실시예 3, 2-[2-(2,5-디메틸페닐)-2-옥소-에틸설파닐]-1H-벤즈이미다졸-4-카르복스아미드] | 5.88 |  |  | 
NC(=O)c1cccc2[nH]c(SCC(=O)c3ccc(N4CCCC4)cc3)nc12 [실시예 6, 2-[2-(4-피롤리딘-1-일페닐)-2-옥소-에틸설파닐]-1H-벤즈이미다졸-4-카르복스아미드] | < 5.00 |  |  | 
NC(=O)c1cccc2[nH]c(SCC(=O)c3ccc(Br)cc3)nc12 [실시예 2, 2-[2-(4-브로모페닐)-2-옥소-에틸설파닐]-1H-벤즈이미다졸-4-카르복스아미드] | 6.15 | 매우 뛰어난 PARP-1 억제효과 | 음성대조군보다 유의성 있는 감소 | 44.1%
NC(=O)c1cccc2[nH]c(SCC(=O)c3ccc(Cl)cc3Cl)nc12 [실시예 9, 2-[2-(2,4-디클로로페닐)-2-옥소-에틸설파닐]-1H-벤즈이미다졸-4-카르복스아미드] | 5.32 |  |  | 
NC(=O)c1cccc2[nH]c(SCC(=O)c3cc(Cl)ccc3Cl)nc12 [실시예 1, 2-[2-(2,5-디클로로페닐)-2-옥소-에틸설파닐]-1H-벤즈이미다졸-4-카르복스아미드] | 5.98 |  |  | 
COc1cccc(C(=O)CSc2nc3c(C(N)=O)cccc3[nH]2)c1 [실시예 7, 2-[2-(3-메톡시페닐)-2-옥소-에틸설파닐]-1H-벤즈이미다졸-4-카르복스아미드] | 5.65 |  |  | 
COc1ccccc1C(=O)CSc1nc2c(C(N)=O)cccc2[nH]1 [실시예 13, 2-[2-(2-메톡시페닐)-2-옥소-에틸설파닐]-1H-벤즈이미다졸-4-카르복스아미드] | 5.95 |  |  | 
CN(C)c1ccc(C(=O)CSc2nc3c(C(N)=O)cccc3[nH]2)cc1 [실시예 5, 2-[2-(4-디메틸아미노페닐)-2-옥소-에틸설파닐]-1H-벤즈이미다졸-4-카르복스아미드] | < 5.00 |  |  | 
